Data as given in patent publication US6500828B1, “Triazolo-pyridazine derivatives as ligands for gaba receptors” (Merck Sharp & Dohme Ltd., priority 1999, dated 2002).

Compound `CCn1ncnc1COc1nn2c(-c3c(F)cccc3F)nnc2cc1C(C)(C)C` [Example 3, 3-(2,6-Difluorophenyl)-7-(1,1-dimethylethyl)-6-(2-ethyl-2H-1,2,4-triazol-3-ylmethoxy)-1,2,4-triazolo[4,3-b]pyridazine] has a melting point of 182 °C.
